# Test results from article PMC2989343 (Bioorganic & medicinal chemistry, 2010).
# What was measured:
# [1] = molecular target: human acetylcholinesterase (AChE, EC 3.1.1.7) (Homo sapiens, UniProt P22303); test: Inhibition of freshly prepared human erythrocyte AChE
# [2] = Observation for acute cholinergically-mediated adverse effects in rat; conditions: anesthetized rat, 10 mg/kg i.p.
# [3] = tested on: cholinesterase; conditions: cited from earlier work
# [4] = molecular target: human butyrylcholinesterase (BChE, EC 3.1.1.8) (Homo sapiens, UniProt P06276); test: Inhibition of freshly prepared human plasma BChE; format: biochemical; conditions: from 60 to 18,000 nM
# Chain of human butyrylcholinesterase (BChE, EC 3.1.1.8) (P06276 29-602): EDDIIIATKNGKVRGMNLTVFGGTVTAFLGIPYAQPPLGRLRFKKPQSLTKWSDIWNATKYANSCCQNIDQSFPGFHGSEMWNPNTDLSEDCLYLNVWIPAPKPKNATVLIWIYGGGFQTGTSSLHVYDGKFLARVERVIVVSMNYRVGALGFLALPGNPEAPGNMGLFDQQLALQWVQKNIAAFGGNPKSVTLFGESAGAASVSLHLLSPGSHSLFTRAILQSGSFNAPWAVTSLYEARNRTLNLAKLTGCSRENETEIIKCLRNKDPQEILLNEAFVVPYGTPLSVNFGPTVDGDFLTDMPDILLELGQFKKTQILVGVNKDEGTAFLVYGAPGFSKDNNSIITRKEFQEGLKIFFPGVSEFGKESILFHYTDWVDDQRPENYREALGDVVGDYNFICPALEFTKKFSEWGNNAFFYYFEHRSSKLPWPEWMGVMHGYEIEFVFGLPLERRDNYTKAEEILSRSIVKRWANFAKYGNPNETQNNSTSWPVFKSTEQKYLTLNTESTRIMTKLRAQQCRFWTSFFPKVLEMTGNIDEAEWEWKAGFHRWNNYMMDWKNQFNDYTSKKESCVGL
# Chain of human acetylcholinesterase (AChE, EC 3.1.1.7) (P22303 32-617 isoform P22303-2 limits assumed): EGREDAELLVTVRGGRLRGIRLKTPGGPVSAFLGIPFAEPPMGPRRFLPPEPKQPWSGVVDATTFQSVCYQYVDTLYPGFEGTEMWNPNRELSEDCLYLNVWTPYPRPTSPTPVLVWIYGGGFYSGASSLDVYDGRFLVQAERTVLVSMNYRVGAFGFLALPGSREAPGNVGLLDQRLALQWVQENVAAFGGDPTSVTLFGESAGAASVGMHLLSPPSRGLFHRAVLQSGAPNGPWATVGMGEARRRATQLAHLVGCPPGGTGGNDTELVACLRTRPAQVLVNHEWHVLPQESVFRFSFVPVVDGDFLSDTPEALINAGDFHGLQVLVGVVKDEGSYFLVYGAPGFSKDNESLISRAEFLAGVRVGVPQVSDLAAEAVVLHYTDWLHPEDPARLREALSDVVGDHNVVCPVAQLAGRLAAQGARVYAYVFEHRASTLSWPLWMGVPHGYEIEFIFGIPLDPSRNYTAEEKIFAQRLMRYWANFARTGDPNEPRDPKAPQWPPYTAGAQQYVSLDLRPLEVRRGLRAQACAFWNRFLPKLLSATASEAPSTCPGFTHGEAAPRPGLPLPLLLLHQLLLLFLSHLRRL
compound,measurement,setting,value
"C[n+]1cccc(OC(=O)Nc2ccccc2)c1.[Br-] [Compound 8, N-Phenylcarbamate of 3-hydroxy-1-methylpyridinium bromide]",AChE inhibitory activity (in words),"[1]; human AChE, versus pyridostigmine (4)",entire loss of AChE activity
"CC(C)c1ccc(NC(=O)Oc2ccc3c(c2)[C@]2(C)CC[N+](C)(C)C2N3C)cc1.[Br-] (stereo partly drawn) [Compound 16, N(1)-Methylammonium bromide of (−)-cymserine]",central (tremor) or peripheral (lacrimation and salivation) cholinergically-mediated adverse effects,[2],No central (tremor) or peripheral (lacrimation and salivation) cholinergically-mediated adverse effects were evident
"CNC(=O)Oc1ccc2c(c1)[C@]1(C)CCN(C)[C@@H]1N2C [Compound 9, (−)-Physostigmine]",human pharmacodynamic half-life (T1/2),[3],30 min
"COS(=O)(=O)[O-].C[N+](C)(C)c1cccc(OC(=O)Nc2ccccc2)c1 [Compound 6, N-Phenylcarbamate of 3-phenol-1-trimethylammonium methylsulfate]",fold decline of BChE IC50 value relative to neostigmine (3),[4],300 fold
"O=C(Nc1ccccc1)Oc1cccnc1 [Compound 7, N-Phenylcarbamate of 3-hydroxypyridine]",Selectivity A/B or B/A,"[1]; given in words only, no ratio",None
